# Test results taken from patent publication US20210405025A1, “IDENTIFYING COMPOUNDS FOR TREATING CANCER AND USE THEREOF” (THE UAB RESEARCH FOUNDATION, priority 2018, published 2021).
# Counter-ions that a name gives are not always drawn.
# System: relapsed AML cells
# Experiment: Drug sensitivity assay, 1,536-well, 3-day culture with individual approved drugs at 10 μM, viability by alamarBlue
# Format: cell-based, human
# Conditions: not given
# Method: Drug sensitivity assays were performed using a 1,536-well platform where all cells and reagents were deposited in wells using an acoustic liquid handling unit that is highly accurate for dispensing of nanoliter volumes of liquid. […] After dispensing the cells into the wells, an independent drug at a known concentration is added to each well and incubated with the cells. After three days, the percentage of live cells in each well is determined to assess the killing efficiency of each compound. […] Cell viability assays are known to those of skill in the art. See, for example, Pemovska et al., Individualized systems medicine strategy to tailor treatments for patients with chemorefractory acute myeloid leukemia. Cancer Discovery 3:1416-1429, 2013; Pabst et al., Identification of small molecules that support human leukemia stem cell activity ex vivo. Nature Methods 11:436-442, 2014; Baccelli et al., A novel approach for the identification of efficient combination therapies in primary human acute myeloid leukemia specimens. Blood Cancer Journal 7:e529, 2017. In studies described herein, the 1,536-well format was utilized, which allowed for use of four times fewer cells as well as less drug and media components due to the small assay volume of 5 microliters. […] Other compounds like CellTiter-Glo (Promega, Madison, Wis.) are equally appropriate reagents for determining cell viability.
# Conditions for the drug screening assays were as described in Pabst et al., Identification of small molecules that support human leukemia stem cell activity ex vivo, Nature Methods 11:436-442, 2014). Using this protocol, cells were cultured in Iscove's Modified Dulbecco's Medium (IMDM), 15% BIT (bovine serum albumin, insulin, transferrin; Stem Cell Technologies 09500 (Vancouver, Calif.)), 100 ng/ml SCF (Shenandoah 100-04 (Warwick, Pa.)), 50 ng/ml FLT3L (Shenandoah 100-21), 20 ng/ml IL-3 (Shenandoah 100-80), 20 ng/ml G-CSF (Shenandoah 100-72), 10^-4 M β-mercaptoethanol, gentamicin (50 μg/ml) and ciprofloxacin (10 μg/ml).
# Cells were removed from liquid nitrogen and placed in a 37° C. bath, just until thawed. For 1,536-well screens utilizing 6,000 wells about 100 million cells were thawed. The volume was doubled with pre-warmed culture media and placed on ice for about one to two minutes. The cells were brought to a final volume of about 8 to 10 mL before spinning down at 1,100 rpm for 5 min at 10° C. The pelleted cells were resuspended in 10 mL of culture media and plated in a tissue-culture treated T75 flask at a density of 1 to 2 million cells/ml. The cells were cultured overnight prior to fluorescence-activated cell sorting of viable cells on the following day.
# After cells were cultured overnight, a cell scraper was used to remove any cells that adhered to the plastic. The cells were gently pipetted up and down to break up aggregates. Then, the entire volume was transferred to a 50 mL conical tube through a 70 micron cell strainer to remove cell clumps. The T75 flask was rinsed and scraped with about 10 mL HBSS and transferred to the same 50 mL conical tube through the strainer. The harvested cells were spun down at 1,100 rpm for 5 min at 10° C. The cells were then resuspendd in about 300-500 microliters FACS buffer (HBSS+2% FBS+1× propidium iodide) and transferred to a FACS tube. The tube was placed on ice and viable cells that are forward- and side-scatter gated on viable myeloid blasts were sorted by FACS (the scatter gate should exclude small lymphocytes, large myeloid cells, and debris). After sorting the required number of viable cells, the cells were spun down at 1,100 rpm for 5 min at 10° C. and subsequently resuspended at 4,000-4,500 cells per 5 microliter volume of complete culture media with growth factors and penicillin/streptomycin.
row,Molecule,#Cases >70% cell death
1,COC(=O)C1=C(C)NC(C)=C(C(=O)OCCCN2CCC(c3ccccc3)(c3ccccc3)CC2)[C@@H]1c1cccc([N+](=O)[O-])c1 [DEXNIGULDIPINE],8
2,COC(=O)C1=C(C)NC(C)=C(C(=O)OCCCN2CCC(c3ccccc3)(c3ccccc3)CC2)[C@H]1c1cccc([N+](=O)[O-])c1 [NIGULDIPINE],12

# Same assay, conditions: number of relapsed AML cases out of 18 tested with >70% cell death; 10 μM, 3-day culture
row,Molecule,#Cases >70% cell death
1,TYLOXAPOL,8
2,CN(Cc1cc(Br)cc(Br)c1N)C1CCCCC1 [BROMHEXINE],1
3,CC(C)C(=O)Nc1ccc([N+](=O)[O-])c(C(F)(F)F)c1 [FLUTAMIDE],2
4,CN1CCc2c(c3ccccc3n2Cc2ccccc2)C1 [MEBHYDROLIN],1
5,COc1cc([C@@H]2c3cc4c(cc3[C@H](O)[C@H]3COC(=O)[C@H]23)OCO4)cc(OC)c1OC [PODOFILOX],13
6,CC[C@@H](C(=O)[C@@H](C)[C@@H](O)[C@H](C)CCc1ccc(C)c(O)c1C(=O)O)[C@H]1O[C@](CC)([C@H]2CC[C@](O)(CC)[C@H](C)O2)C[C@@H]1C [LASALOCID SODIUM],10
7,CC[C@@]1(O)C(=O)OCc2c1cc1n(c2=O)Cc2cc3cc(O)ccc3nc2-1 [10-HYDROXYCAMPTOTHECIN],12
8,COc1cc(CNC(=O)CCCC/C=C/C(C)C)ccc1O [CAPSAICIN],1
9,Cc1ccc(Nc2nccc(N(C)c3ccc4c(C)n(C)nc4c3)n2)cc1S(N)(=O)=O [PAZOPANIB],4
10,CCOC(=O)c1c(N)sc2c1CCN(Cc1ccccc1)C2 [Y-3642],1
11,CC[C@]1(O)C[C@@H]2CN(CCc3c([nH]c4ccccc34)[C@@](C(=O)OC)(c3cc4c(cc3OC)N(C)[C@H]3[C@@](O)(C(N)=O)[C@H](O)[C@]5(CC)C=CCN6CC[C@]43[C@@H]65)C2)C1,9
12,CCc1nn(CCCN2CCN(c3cccc(Cl)c3)CC2)c(=O)n1CCOc1ccccc1 [NEFAZODONE],1
13,CCn1cc(-c2ccnc3[nH]c(-c4cccc(CN(C)C)c4)cc23)c(-c2ccc(NC(=O)N(C)C)cc2)n1 [GSK1070916],11
14,CN[C@H](C(=O)N[C@H](C(=O)N(C)[C@H](/C=C(\C)C(=O)O)C(C)C)C(C)(C)C)C(C)(C)c1ccccc1 [TALTOBULIN],14
15,Cc1ncc(-c2ccnc(Nc3ccc(S(C)(=O)=O)cc3)n2)n1C(C)C [AZD-5438],17
16,CC[C@@H](C(=O)O)[C@@H]1O[C@@H]([C@@H](C)[C@H](O)[C@H](C)C(=O)[C@H](CC)[C@H]2O[C@]3(C=C[C@@H](O)[C@]4(CC[C@@](C)([C@H]5CC[C@](O)(CC)[C@H](C)O5)O4)O3)[C@H](C)C[C@@H]2C)[C@@H](C)C[C@@H]1C [NARASIN],8
17,GRAMICIDIN [GRAMICIDIN (GRAMICIDIN A SHOWN)],9
18,Cc1cc(Nc2nc(N[C@@H](C)c3ncc(F)cn3)ncc2Cl)[nH]n1 [AZD-1480],12
19,CC(C)N1CCN(c2ccc(OCC3COC(Cn4cncn4)(c4ccc(Cl)cc4Cl)O3)cc2)CC1 (stereo not drawn) [TERCONAZOLE],7
20,CC(C)[C@H](N)C(=O)OCCOCn1cnc2c(=O)[nH]c(N)nc21 [VALACICLOVIR],1
21,C[C@]12C=CC(=O)C=C1CC[C@@H]1[C@@H]2[C@@H](O)C[C@@]2(C)[C@H]1CC[C@]2(O)C(=O)CO [PREDNISOLONE],1
22,ARSENIC TRIOXIDE DIETHANOLAMINE SALT,16
23,CO[C@H]1C[C@H](O[C@@H]2/C(C)=C/C[C@@H]3C[C@@H](C[C@]4(CC[C@H](C)[C@@H](C5CCCCC5)O4)O3)OC(=O)[C@@H]3C=C(C)/C(=N/O)[C@H]4OC/C(=C\C=C\[C@@H]2C)[C@]43O)O[C@@H](C)[C@@H]1O [SELAMECTIN],18
24,CCCCC(CC)CNC(=N)NC(=N)NCCCCCCNC(=N)NC(=N)NCC(CC)CCCC (stereo not drawn) [ALEXIDINE],18
25,N#CCNC(=O)c1ccc(-c2ccnc(Nc3ccc(N4CCOCC4)cc3)n2)cc1 [CYT387],14
26,C[C@@H]1O[C@@H](O[C@H]2C[C@@H](O)[C@]3(CO)[C@H]4[C@H](O)C[C@]5(C)[C@@H](C6=CC(=O)OC6)CC[C@]5(O)[C@@H]4CC[C@]3(O)C2)[C@H](O)[C@H](O)[C@H]1O.O.O.O.O.O.O.O.O [STROPHANTINE OCTAHYDRATE],18
27,COC(=O)Nc1nc2ccc(Sc3ccccc3)cc2[nH]1 [FENBENDAZOLE],5
28,N=C(N)c1ccc(OCCCCCOc2ccc(C(=N)N)cc2)cc1 [PENTAMIDINE],2

row,Molecule,#Cases >70% cell death
1,CCN[C@H]1C[C@H](C)S(=O)(=O)c2sc(S(N)(=O)=O)cc21 [DORZOLAMIDE],4
2,CC(C)(Sc1cc(C(C)(C)C)c(O)c(C(C)(C)C)c1)Sc1cc(C(C)(C)C)c(O)c(C(C)(C)C)c1 [PROBUCOL],4
3,COc1ccc2c(c1)CN(C(=O)CCN1CCC(Cc3ccccc3)CC1)CCS2 [K201],4
4,CN(C)c1ccc(C(=C2C=CC(=[N+](C)C)C=C2)c2ccc(N(C)C)cc2)cc1 [GENTIAN VIOLET],18
5,Cc1cc(C2CCCCC2)n(O)c(=O)c1 [CICLOPIROX],14
6,CC(=O)Nc1ccc(C(=O)Nc2ccccc2N)cc1 [TACEDINALINE],4
7,Nc1nc2nc[nH]c2c(=S)[nH]1 [THIOGUANINE],14
8,Nc1nc(Cl)nc2c1ncn2[C@H]1C[C@H](O)[C@@H](CO)O1 [CLADRIBINE],17
9,O=C(/C=C/c1ccc(CN(CCO)CCc2c[nH]c3ccccc23)cc1)NO [LAQ-824],18
10,C#Cc1cccc(Nc2ncnc3cc(OCCOC)c(OCCOC)cc23)c1 [ERLOTINIB],6
11,CC(C)C[C@H](NC(=O)[C@H](Cc1ccccc1)NC(=O)c1cnccn1)B(O)O [BORTEZOMIB],18
12,CCN(CC)CCOc1ccc(Cc2ccccc2)cc1 [TESMILIFENE HYDROCHLORIDE],9
13,BENZALKONIUM CHLORIDE,15
14,CCC1=C[C@@H]2CN(C1)Cc1c([nH]c3ccccc13)[C@@](C(=O)OC)(c1cc3c(cc1OC)N(C)[C@H]1[C@@](O)(C(=O)OC)[C@H](OC(C)=O)[C@]4(CC)C=CCN5CC[C@]31[C@@H]54)C2 [VINORELBINE],16
15,Clc1ccc(CSC(Cn2ccnc2)c2ccc(Cl)cc2Cl)cc1 (stereo not drawn) [SULCONAZOLE NITRATE],5
16,COCCCC/C(=N\OCCN)c1ccc(C(F)(F)F)cc1 [FLUVOXAMINE MALEATE],1
17,AZD-1152,5
18,NALTRIBEN METHAN[…],1
19,CN(C)C(=S)SSC(=S)N(C)C [THIRAM],4
20,Cn1cc(-c2[nH]c3cc(NC(=O)[C@H](N)C4CCCCC4)cc4c3c2C=NNC4=O)cn1 [PF-00477736],13
21,COc1cc2ncnc(Nc3ccc(F)c(Cl)c3)c2cc1OCCCN1CCOCC1 [GEFITINIB],2
22,"Cc1nccn1CC1CCc2c(c3ccccc3n2C)C1=O (stereo not drawn) [ONDANSETRON (Zofran), ONDANSETRON]",1
23,c1ccc2c(CCNc3ccc(Nc4ccncc4)cc3)c[nH]c2c1,12
24,OCCN1CCN(CCCN2c3ccccc3Sc3ccc(Cl)cc32)CC1 [PERPHENAZINE],2
25,CN1CCN(c2ccc3nc(-c4c(N)c5c(F)cccc5[nH]c4=O)[nH]c3c2)CC1 [GFKI-258],16
26,CCCCc1oc2ccc(NS(C)(=O)=O)cc2c1C(=O)c1ccc(OCCCN(CCCC)CCCC)cc1 [DRONEDARONE],12
27,C#C[C@]1(O)CC[C@H]2[C@@H]3CCc4cc(O)ccc4[C@H]3CC[C@@]21C [ETHINYL ESTRADIOL],1
